Experimental data taken from patent US5859007A, “CCK or gastrin modulating benzo [b][1,4] diazepines derivatives” (Glaxo Wellcome Inc., priority 1994, dated 1999).

test system: isolated guinea pig gallbladder; experiment: Functional activity in isolated guinea pig gallbladder preparation; assay type: cell-based; conditions: 1 × 10^-6 M test compound; expressed as % CCK-induced maximal response
Procedure: 3. GUINEA PIG GALL BLADDER ASSAY
Gallbladders are removed from guinea pigs sacrificed by cervical dislocation. The isolated gallbladders are cleaned of adherent connective tissue and cut into two rings from each animal (2-4 mm in length). The rings are subsequently suspended in organ chambers containing a physiological salt solution (118.4 mM NaCl, 4.7 mM KCl, 1.2 mM MgSO4, 2.5 mM CaCl2, 1.2 mM KH2 […], 25 mM NaHCO3, 11.1 mM dextrose). The bathing solution is maintained at 37° C. and aerated with 95% O2 /5% CO2. Tissues are connected via gold chains and stainless steel mounting wires to isometric force displacement transducers (Grass, Model FT03 D). Responses are then recorded on a polygraph (Grass, Model 7E).
Rings are gradually stretched (over a 120 min. period) to a basal resting tension of 1 gm which is maintained throughout the experiment. During the basal tension adjustment period, the rings are exposed to acetylcholine (10^-6 M) four times to verify tissue contractility. The tissues are then exposed to a submaximal dose of sulfated CCK-8 (Sigma, 3×10^-9 M). After obtaining a stable response, the tissues are washed out 3 times rapidly and every 5 to 10 minutes for 1 hour to reestablish a stable baseline.
Compounds are dissolved in dimethylsulfoxide ([…]) followed by a concentration-response curve to sulfated CCK-8 (10^-10 to 10^-6 M) in the presence of the highest dose of the test compound. As a final test, ACH (10 mM) is added to induce maximal contraction. A minimum of three determinations of activity are made for each test compound.

Compound | %Contraction (1 × 10^-6 M)
COc1ccc(N(C(=O)CN2C(=O)C(CC(=O)Nc3ccccc3)C(=O)N(c3ccccc3)c3ccccc32)C(C)C)cc1 (centres unmarked) [Example 39, 2-(2,4-dioxo-5-phenyl-3-phenylcarbamoylmethyl-2,3,4,5-tetrahydro-benzo[b][1,4]diazepin-1-yl)-N-isopropyl-N-(4-methoxy-phenyl)-acetamide] | 57%

same assay, conditions: Cavia porcellus, 1 × 10^-6 M test compound; expressed as % CCK-induced maximal response; read-out: %Contraction (1 × 10^-6 M)

Compound | activation at 1 µM
COc1ccc(N(C(=O)CN2C(=O)C(Cc3c[nH]c4ccccc34)C(=O)N(c3ccccc3)c3ccccc32)C(C)C)cc1 (centres unmarked) [Example 22, 2-[3-(1H-indol-3-ylmethyl)-2,4-dioxo-5-phenyl-2,3,4,5-tetrahydro-benzo[b][1,4]diazepin-1-yl]-N-isopropyl-N-(4-methoxy-phenyl) acetamide] | 61%
COc1ccc(N(C(=O)CN2C(=O)C(C)(CC(=O)Nc3cccc(F)c3)C(=O)N(c3ccccc3)c3ccccc32)C(C)C)cc1 (centres unmarked) [Example 25, N-Isopropyl-N-(4-methoxy-phenyl)-2-[3-(3-fluoro-phenylcarbamoylmethyl)-3-methyl-2,4-dioxo-5-phenyl-2,3,4,5-tetrahydro-benzo[b][1,4]diazepin-1-yl]acetamide] | 88%
COCC1(CC(=O)Nc2ccccc2)C(=O)N(CC(=O)N(c2ccc(OC)cc2)C(C)C)c2ccccc2N(c2ccccc2)C1=O (centres unmarked) [Example 26, N-Isopropyl-2-(3-methoxymethyl-2,4-dioxo-5-phenyl-3-phenylcarbamoylmethyl-2,3,4,5-tetrahydro-benzo[b][1,4]diazepin-1-yl)-N-(4-methoxy-phenyl)-acetamide] | 91%
COc1ccc(N(C(=O)CN2C(=O)C(CN(C)C(=O)c3ccccc3)C(=O)N(c3ccccc3)c3ccccc32)C(C)C)cc1 (centres unmarked) [Example 28, N-{1-[Isopropyl-(4-methoxy-phenyl)-carbamoylmethyl]-2,4-dioxo-5 phenyl-2,3,4,5-tetrahydro-1H-benzo[b][1,4]diazepin-3-ylmethyl}-N-methyl benzamide] | 3%
COc1ccc(N(C(=O)CN2C(=O)C(CC(=O)O)(CC(=O)Nc3ccccc3)C(=O)N(c3ccccc3)c3ccccc32)C(C)C)cc1 (centres unmarked) [Example 29, {1-[Isopropyl-(4-methoxy-phenyl)-carbamoylmethyl]-2,4-dioxo-5-phenyl-3-phenylcarbamoylmethyl-2,3,4,5-tetrahydro-1H-benzo[b][1,4]diazepin-3-yl}acetic acid] | 65%
COc1ccc(N(C(=O)CN2C(=O)C(C)(Cc3n[nH]c4ccccc34)C(=O)N(c3ccccc3)c3ccccc32)C(C)C)cc1 (centres unmarked) [Example 30, 2-[3-(1H-Indazol-3-ylmethyl)-3-methyl-2,4-dioxo-5-phenyl-2,3,4,5-tetrahydro-benzo[b][1,4]diazepin-1-yl]-N-isopropyl-N-(4-methoxy-phenyl) acetamide] | 75%
COc1ccc(N(C(=O)CN2C(=O)C(Cc3coc4ccccc34)C(=O)N(c3ccccc3)c3ccccc32)C(C)C)cc1 (centres unmarked) [Example 32] | 38%
COc1ccc(N(C(=O)CN2C(=O)C(C)(Cc3coc4ccccc34)C(=O)N(c3ccccc3)c3ccccc32)C(C)C)cc1 (centres unmarked) [Example 33] | 53%
COc1ccc(N(C(=O)CN2C(=O)C(Cc3cccc4ccccc34)C(=O)N(c3ccccc3)c3ccccc32)C(C)C)cc1 (centres unmarked) [Example 34, N-Isopropyl-N-(4-methoxy-phenyl)-2-(3-naphthalen-1-ylmethyl-2,4-dioxo-5-phenyl-2,3,4,5-tetrahydro-benzo[b][1,4]diazepin-1-yl) acetamide] | 47%
COc1ccc(N(C(=O)CN2C(=O)C(C)(Cc3cccc4ccccc34)C(=O)N(c3ccccc3)c3ccccc32)C(C)C)cc1 (centres unmarked) [Example 35, N-Isopropyl-N-(4-methoxy-phenyl)-2-(3-methyl-3-naphthalen-1-ylmethyl-2,4-dioxo-5-phenyl-2,3,4,5-tetrahydro-benzo[b][1,4]diazepin-1-yl) acetamide] | 44%
COc1ccc(N(C(=O)CN2C(=O)C(Cc3ccc4ccccc4c3)C(=O)N(c3ccccc3)c3ccccc32)C(C)C)cc1 (centres unmarked) [Example 36, N-Isopropyl-N-(4-methoxy-phenyl)-2-(3-naphthalen-2-ylmethyl-2,4-dioxo-5-phenyl-2,3,4,5-tetrahydro-benzo[b][1,4]diazepin-1-yl) acetamide] | 19%
COc1ccc(N(C(=O)CN2C(=O)C(Cc3csc4ccccc34)C(=O)N(c3ccccc3)c3ccccc32)C(C)C)cc1 (centres unmarked) [Example 37, 2-(3-Benzo[b]thiophen-3-ylmethyl-2,4-dioxo-5-phenyl-2,3,4,5-tetrahydro-benzo[b][1,4]diazepin-1-yl)-N-isopropyl-N-(4-methoxy-phenyl) acetamide] | 46%
COc1ccc(N(C(=O)CN2C(=O)C(C)(Cc3ccc4ccccc4c3)C(=O)N(c3ccccc3)c3ccccc32)C(C)C)cc1 (centres unmarked) [Example 38, N-Isopropyl-N-(4-methoxy-phenyl)-2-(3-methyl-3-naphthalen-2-ylmethyl-2,4-dioxo-5-phenyl-2,3,4,5-tetrahydro-benzo[b][1,4]diazepin-1-yl) acetamide] | 30%
COc1ccc(N(C(=O)CN2C(=O)C(C)(Cc3csc4ccccc34)C(=O)N(c3ccccc3)c3ccccc32)C(C)C)cc1 (centres unmarked) [Example 40, 2-(3-Benzo[b]thiophen-3-ylmethyl-3-methyl-2,4-dioxo-5-phenyl-2,3,4,5-tetrahydro-benzo[b][1,4]diazepin-1-yl)-N-isopropyl-N-(4-methoxy-phenyl) acetamide] | 10%
COc1ccc(N(C(=O)CN2C(=O)C(C)(CC(=O)Nc3ccccc3)C(=O)N(c3ccc(Cl)cc3)c3ccccc32)C(C)C)cc1 (centres unmarked) [Example 41] | 40%
COc1ccc(N(C(=O)CN2C(=O)C(Cc3nn(Cc4ccccc4)c4ccccc34)(OC)C(=O)N(c3ccccc3)c3ccccc32)C(C)C)cc1 (centres unmarked) [Example 42, 2-[3-(1-Benzyl-1H-Indazol-3-ylmethyl)-3-methoxy-2,4-dioxo-5-phenyl-2,3,4,5-tetrahydro-benzo[b][1,4]diazepin-1-yl]-N-isopropyl-N-(4-methoxy-phenyl) acetamide] | 16%

same assay, conditions: Cavia porcellus, 3 × 10^-5 M test compound; expressed as % CCK-induced maximal response; read-out: % Contraction (3 × 10^-5 M)

Compound | activation at 30 µM
COc1ccc(N(C(=O)CN2C(=O)C(Cc3c[nH]c4ccccc34)C(=O)N(c3ccccc3)c3ccccc32)C(C)C)cc1 (centres unmarked) [Example 22, 2-[3-(1H-indol-3-ylmethyl)-2,4-dioxo-5-phenyl-2,3,4,5-tetrahydro-benzo[b][1,4]diazepin-1-yl]-N-isopropyl-N-(4-methoxy-phenyl) acetamide] | 71%
COc1ccc(N(C(=O)CN2C(=O)C(C)(Cc3c[nH]c4ccccc34)C(=O)N(c3ccccc3)c3ccccc32)C(C)C)cc1 (centres unmarked) [Example 23, 2-[3-(1H-indol-3-ylmethyl)-3-methyl-2,4-dioxo-5-phenyl-2,3,4,5-tetrahydro-benzo[b][1,4]diazepin-1-yl]-N-isopropyl-N-(4-methoxy-phenyl) acetamide] | 50%
COc1ccc(N(C(=O)CN2C(=O)C(C)(Cc3cn(C)c4ccccc34)C(=O)N(c3ccccc3)c3ccccc32)C(C)C)cc1 (centres unmarked) [Example 24, 2-[3-(N-methyl-indol-3-ylmethyl)-3-methyl-2,4-dioxo-5-phenyl-2,3,4,5-tetrahydro-benzo[b][1,4]diazepin-1-yl]-N-isopropyl-N-(4-methoxy-phenyl) acetamide] | 34%
COc1ccc(N(C(=O)CN2C(=O)C(Cc3nn(Cc4ccccc4)c4ccccc34)C(=O)N(c3ccccc3)c3ccccc32)C(C)C)cc1 (centres unmarked) [Example 27, 2-[3-(1-Benzyl-1H-indazol-3-ylmethyl)-2,4-dioxo-5-phenyl-2,3,4,5-tetrahydro-benzo[b][1,4]diazepin-1-yl]-N-isopropyl-N-(4-methoxy-phenyl) acetamide] | 40%
COc1ccc(N(C(=O)CN2C(=O)C(CC(=O)O)(CC(=O)Nc3ccccc3)C(=O)N(c3ccccc3)c3ccccc32)C(C)C)cc1 (centres unmarked) [Example 29, {1-[Isopropyl-(4-methoxy-phenyl)-carbamoylmethyl]-2,4-dioxo-5-phenyl-3-phenylcarbamoylmethyl-2,3,4,5-tetrahydro-1H-benzo[b][1,4]diazepin-3-yl}acetic acid] | 85%
COc1ccc(N(C(=O)CN2C(=O)C(C)(Cc3n[nH]c4ccccc34)C(=O)N(c3ccccc3)c3ccccc32)C(C)C)cc1 (centres unmarked) [Example 30, 2-[3-(1H-Indazol-3-ylmethyl)-3-methyl-2,4-dioxo-5-phenyl-2,3,4,5-tetrahydro-benzo[b][1,4]diazepin-1-yl]-N-isopropyl-N-(4-methoxy-phenyl) acetamide] | 70%
